Measurements published in patent US20080125432A1 (Devgen NV, priority 2004, published 2008).

Tested on: not given
Assay: not given
Conditions: not given

Row | melting point | Molecule
1 | 178 to 180.1 °C | Cc1nc(Nc2ccc3c(c2)OCCO3)sc1C(=O)N[C@H]1CCC[C@@H]1OCc1ccccc1 [Compound 95]
2 | 183.3 to 185.2 °C | COc1ccccc1Nc1nc(C)c(C(=O)NCc2ccc(N(C)C)cc2)s1 [Compound 105, 2-(2-methoxy-phenylamino)-4-methyl-thiazole-5-carboxylic acid 4-dimethylamino-benzylamide]
3 | 136.5 to 140.1 °C | COc1ccccc1Nc1nc(C)c(C(=O)NCc2ccc3c(c2)CCO3)s1 [Compound 104, 2-(2-methoxy-phenylamino)-4-methyl-thiazole-5-carboxylic acid (2,3-dihydro-benzofuran-5-ylmethyl)-amide]
4 | 97.3 to 99.8 °C | COc1ccccc1Nc1nccc(C(=O)N[C@H]2CCC[C@@H]2OCc2ccccc2)n1 [Compound 76, 2-(2-methoxy-phenylamino)-pyrimidine-4-carboxylic acid ((1S,2S)-2-benzyloxycyclopent-1-yl) amide]
5 | 129.5 to 132.4 °C | Cc1nc(Sc2ccccc2)sc1C(=O)N[C@H]1CCC[C@@H]1OCc1ccccc1 [Compound 81, 4-methyl-2-phenylsulfanyl-thiazole-5-carboxylic acid ((1S,2S)-2-benzyloxycyclopent-1-yl) amide]
6 | 66.5 °C | COc1ccccc1Nc1nc(C)c(C(=O)NCc2ccccc2SC)s1 [Compound 97]
7 | 164.4 to 169.3 °C | Cc1nc(Nc2ccc3occc3c2)sc1C(=O)N[C@H]1CCC[C@@H]1OCc1ccccc1 [Compound 126, 2-(benzofuran-5-ylamino)-4-methyl-thiazole-5-carboxylic acid ((1S,2S)-2-benzyloxycyclopent-1-yl) amide]
8 | 168.5 to 169.4 °C | COc1ccccc1Nc1nc(C)c(C(=O)NCc2ccc(C(C)(C)C)cc2)s1 [Compound 106, 2-(2-methoxy-phenylamino)-4-methyl-thiazole-5-carboxylic acid 4-tert-butyl-benzylamide]
9 | 102.4 to 108.2 °C | Cc1nc(Nc2cccc3ccccc23)sc1C(=O)N[C@H]1CCC[C@@H]1OCc1ccccc1 [Compound 93]
10 | 88.7 to 90 °C | Cc1nc(NC(=O)c2ccc(C(C)(C)C)cc2)sc1C(=O)N[C@H]1CCC[C@@H]1OCc1ccccc1 [Compound 180, 2-(4-tert-butyl-benzoylamino)-4-methyl-thiazole-5-carboxylic acid ((1S,2S)-2-benzyloxycyclopent-1-yl) amide]
11 | 69.7 to 71.6 °C | COc1ccccc1Nc1ccc(C(=O)N[C@H]2CCC[C@@H]2OCc2ccccc2)s1 [Compound 75, 2-(2-methoxy-phenylamino)-thiophene-5-carboxylic acid ((1S,2S)-2-benzyloxycyclopent-1-yl) amide]
12 | 150.7 to 154.2 °C | COc1ccccc1Nc1nc(C)c(C(=O)NCc2ccc(Br)cc2)s1 [Compound 108, 2-(2-methoxy-phenylamino)-4-methyl-thiazole-5-carboxylic acid 4-bromo-benzylamide]
13 | 105.4 to 107.6 °C | COc1ccccc1Nc1nc(C)c(C(=O)NCc2c(C)cccc2Cl)s1 [Compound 98, 2-(2-methoxy-phenylamino)-4-methyl-thiazole-5-carboxylic acid 2-chloro-6-methyl-benzylamide]

Tested on: human Kv4.3/KChIP2.2 potassium channel
Assay: Whole cell patch clamp, CHO-K1 cells stably expressing human Kv4.3/KChIP2.2
Type: cell-based
Conditions: selectivity for Kv4.3 vs hERG (Patch Clamp test); >5 considered very selective

Row | Molecule | Ratio hERG/Kv4.3
14 | COc1ccccc1Nc1nc(C)c(C(=O)N[C@H]2CCC[C@@H]2OCc2ccccc2)s1 [Compound 68, 2-(2-methoxy-phenylamino)-4-methyl-thiazole-5-carboxylic acid (1S,2S)-2-(benzyloxycyclopent-1-yl) amide] | 14.7
15 | Cc1nc(Nc2ccc(Cl)cc2)sc1C(=O)N[C@@H](C)c1ccc2ccccc2c1 [Compound 54, 2-(4-chloro-phenylamino)-4-methyl-thiazole-5-carboxylic acid (S)-1-(2-naphtalen-2-yl-ethyl)-amide] | 6.6
16 | Cc1nc(Nc2ccc(Br)cc2)sc1C(=O)NCc1ccc(F)c(C(F)(F)F)c1 [Compound 63, 2-(4-bromo-phenylamino)-4-methyl-thiazole-5-carboxylic acid 4-fluoro-3-trifluoromethyl-benzylamide] | 33.1
17 | COc1ccccc1Nc1nc(C)c(C(=O)N[C@@H](C)c2ccc3ccccc3c2)s1 [Compound 55, 2-(2-methoxy-phenylamino)-4-methyl-thiazole-5-carboxylic acid (S)-1-(2-naphtalen-2-yl-ethyl)-amide] | 5.0
18 | Cc1nc(Nc2ccc(Cl)cc2)sc1C(=O)N[C@@H]1CCC[C@H]1OCc1ccccc1 [Compound 30, 2-(4-chloro-phenylamino)-4-methyl-thiazole-5-carboxylic acid (1R,2R)-2-(benzyloxycyclopent-1-yl) amide] | 8.7
19 | COc1ccc(CNC(=O)c2sc(Nc3ccc(Br)cc3)nc2C)cc1 [Compound 60, 2-(4-bromo-phenylamino)-4-methyl-thiazole-5-carboxylic acid 4-methoxy-benzylamide] | 7.7
20 | COc1cc(CNC(=O)c2sc(Nc3ccc(Br)cc3)nc2C)cc(OC)c1 [Compound 65, 2-(4-bromo-phenylamino)-4-methyl-thiazole-5-carboxylic acid 3,5-dimethoxy-benzylamide] | 9.1
21 | Cc1nc(Nc2ccc(Br)cc2)sc1C(=O)N[C@H](C)c1ccc2ccccc2c1 [Compound 19, 2-(4-bromo-phenylamino)-4-methyl-thiazole-5-carboxylic acid (R)-1-(naphthalen-2-yl)ethyl amide] | 33.1
22 | Cc1nc(Nc2ccc(Br)cc2)sc1C(=O)NCc1cccc2ccccc12 [Compound 56, 2-(4-bromo-phenylamino)-4-methyl-thiazole-5-carboxylic acid (naphtalen-1-yl-methyl)-amide] | 6.6
23 | COc1cccc([C@@H](C)NC(=O)c2sc(Nc3cc(Cl)ccc3OC)nc2C)c1 [Compound 34] | 5.4
24 | 2-(4-bromo-phenylamino)-4-methyl-thiazole-5-carboxylic acid 1,2,3,4-tetrahydroisoquinolinamide [Compound 66] | 29.1
25 | Cc1nc(Nc2ccc(Cl)cc2)sc1C(=O)N[C@H](C)c1ccc2ccccc2c1 [Compound 52, 2-(4-chloro-phenylamino)-4-methyl-thiazole-5-carboxylic acid (R)-1-(2-naphtalen-2-yl-ethyl)-amide] | 65.4
26 | COc1ccccc1Nc1nc(C)c(C(=O)N[C@@H]2CCC[C@H]2OCc2ccccc2)s1 [Compound 31, 2-(2-methoxy-phenylamino)-4-methyl-thiazole-5-carboxylic acid (1R,2R)-2-(benzyloxycyclopent-1-yl) amide] | 8.7
27 | COc1ccc(OC)c(Nc2nc(C)c(C(=O)N[C@@H]3CCC[C@H]3OCc3ccccc3)s2)c1 [Compound 33, 2-(2,5-dimethoxyphenylamino)-4-methylthiazole-5-carboxylic acid (1R,2R)-2-(benzyloxycyclopent-1-yl) amide] | 10.0
28 | Cc1nc(Nc2ccc(Br)cc2)sc1C(=O)N[C@@H](C)c1ccc2ccccc2c1 [Compound 18, 2-(4-bromo-phenylamino)-4-methyl-thiazole-5-carboxylic acid (S)-1-(naphthalen-2-yl)ethyl amide] | 6.9
29 | Cc1nc(Nc2ccc(Br)cc2)sc1C(=O)NCc1ccc(N(C)C)cc1 [Compound 64, 2-(4-bromo-phenylamino)-4-methyl-thiazole-5-carboxylic acid 4-dimethylamino-benzylamide] | >120

Tested on: C. elegans wild-type strain N2
Assay: Same C. elegans pumping assay format using wild-type strain N2
Type: in vivo
Conditions: Caenorhabditis elegans, read-out: EC50 (μM) Wild type worm N2
Excerpt: The screening of the compounds according to the present invention has been performed in the C. elegans based high-throughput screen for Kv4.3 modulators described above. The method for testing the activity on human Kv4.3 of the compounds according to the invention with C. elegans strains expressing human Kv4.3 for their activity is the same as the method described in WO 03/097682. The method for testing the compounds on wild-type C. elegans strains not expressing human Kv4.3 is the same as the method described in WO 00/63427. Briefly, UG1755 animals have been grown in large numbers and staged young adults (no or only few eggs inside the uterus) have been harvested on the day of screening. Approximately 125 animals in 80 μl buffer have been dispensed per well of a “U shaped 96-well compound plate The compound plate contained already compound material at a final concentration of 30 μM in 0.3% DMSO. After one hour incubation 10 μl of the fluorescent label Calcein AM (CAM) have been added to achieve a final concentration of 5 μM CAM and 0.8% DMSO. After another four hours of incubation at 20° C., the drinking of C. elegans animals (or the “reaction 8 measured by the uptake of CAM) has been stopped by adding 10 μl of a 60 μM ivermectin solution. The fluorescence intensity (counts per second) has been measured 40 minutes after adding ivermectin with the Wallac plate reader at a wavelength of 535 nm (after excitation at 485 nm).
These compounds have been also tested in the same assay format using a C. elegans wild-type strain N2 and the corresponding EC50 has been calculated. The ratio of the EC50s obtained for a compound on the two strains (transgenic expressing human Kv4.3 and wild-type) gives an indication on whether said compound is acting on human Kv4.3. […]

Row | EC50 | Molecule
30 | 33 µM | Cc1nc(Nc2ccc(Br)cc2)sc1C(=O)N[C@H](C)c1ccc2ccccc2c1 [Compound 19, 2-(4-bromo-phenylamino)-4-methyl-thiazole-5-carboxylic acid (R)-1-(naphthalen-2-yl)ethyl amide]
31 | > 60 µM | Cc1nc(Nc2ccc(F)cc2)sc1C(=O)N[C@H](C)c1ccc2ccccc2c1 [Compound 16, 2-(4-fluoro-phenylamino)-4-methyl-thiazole-5-carboxylic acid (R)-1-(naphthalen-2-yl)ethyl amide]
32 | 33 µM | Cc1nc(Nc2ccc(Br)cc2)sc1C(=O)N[C@@H](C)c1ccc2ccccc2c1 [Compound 18, 2-(4-bromo-phenylamino)-4-methyl-thiazole-5-carboxylic acid (S)-1-(naphthalen-2-yl)ethyl amide]

Same assay, conditions: read-out: EC50 (μM) Wild type worm N2

Row | EC50 | Molecule
33 | > 60 µM | Cc1nc(Nc2ccc(Cl)cc2)sc1C(=O)N[C@@H]1CCC[C@H]1OCc1ccccc1 [Compound 30, 2-(4-chloro-phenylamino)-4-methyl-thiazole-5-carboxylic acid (1R,2R)-2-(benzyloxycyclopent-1-yl) amide]
